Test results reported in patent US6576607B1, “Methods using CNS neurite outgrowth modulators” (Acorda Therapeutics, priority 1995, dated 2003).

How the values were obtained:
[1] = test system: pyramidal neurons in the CA1 region of rat hippocampal slices; experiment: Long term potentiation (LTP) induced by theta burst stimulation in hippocampal slices; format: cell-based; settings: perfusion of 10 μM
Method: Transverse hippocampal slices (400 μm) from halothane-anaesthetized male Wistar rats (180-220 g) were prepared using standard techniques. Slices were maintained in an interface chamber and initially allowed to recover for 45 min. in a hyperosmolar (320 mOsm/kg) artificial cerebrospinal fluid (ACSF) at room temperature. The bath temperature was then raised to 30° C. and the medium was changed to a normotonic ACSF (307 mOsm/kg) containing (in mM): NaCl, 124.0; KCl, 2.5; MgSO24, 2.0: CaCl2, 2.5; KH2PO4, 1.25; NaHCO3, 26.0; glucose, 10; sucrose, 4; bubbled with 95% O2/5% CO2 (pH 7.4); perfusion rate: 0.75 ml/min. The Schaffer collateral/commissural fibers were stimulated by twisted platinum-iridium wires (50 μm diameter) placed in the stratum radiatum of the CA1 region. Test stimuli consisted in monophasic impulses of 100 μs duration every 30 seconds and the stimulus strength was adjusted to obtain 30% of the maximal EPSP amplitude (maximal EPSP without superimposed population spike). EPSP's were recorded from the CA1 stratum radiatum by means of 2 glass micropipettes (2 M NaCl, 1-5 MΩ) positioned about […] apart from the stimulation electrode on each side. […]

NMDA receptor = experiment: NMDA receptor-mediated EPSPs in hippocampal slices; format: cell-based, rat; settings: 30 μM, in the presence of CNQX
Method: NMDA receptor-mediated EPSP's were isolated by applying 30 μM of the non-NMDA blocker 6-cyano-7-nitroquinoxaline-2,3-dione (CNQX; Tocris) starting 20 minutes prior to the application of antibodies or glycopeptides.

[2] = test system: mouse mesencephalon cells; experiment: Mesencephalon cells cultured on L1-coated plates, stained for dopamine; format: cell-based; settings: plates coated with laminin, 7 days
Method: An experiment was performed to further elucidate the activity of L1 with CNS nerve tissue. Specifically, aliquot samples of mouse mesencephalon cells were plated and cultured on four separate plates having media prepared as follows: the first control plate was coated with poly-L-lysine alone; a second plate was coated with poly-L-lysine and L1; a third control plate was coated with poly-L-lysine and laminin; and a fourth plate was coated with poly-L-lysine, laminin and L1. All plates received aliquot amounts of cells and were incubated under identical conditions. After 7 days, the plates were all stained for the presence of dopamine and thereafter observed.

small cerebellar neurons = experiment: Neurite outgrowth of small cerebellar neurons on substrate-coated L1 monoclonal antibodies; format: cell-based; settings: neurons on L1 and antibody 557.B6
From the text: To determine the domains of neural cell adhesion molecule L1 involved in neurite outgrowth, monoclonal antibodies against L1 were generated and their effects on neurite outgrowth of small cerebellar neurons in culture investigated. […] These observations indicate for the first time a distinct site on cell surface-bound L1 as a prominent signal transducing domain through which the recognition events appear to be funnelled to trigger neurite outgrowth, increase turnover of inositol phosphates and elevate intracellular levels of Ca^2+.

[3] = test system: mesencephalic neurons (DBH+); experiment: Survival and neurite outgrowth of DBH+ mesencephalic neurons; format: cell-based, rat; settings: DBH+ neurons after 7 days in vitro, mean ± SEM
Method: Soluble L1 was made in COS cells as a recombinant L1-Fc fusion protein by the procedure described in Neuron 14:57-66, 1995. The recombinant protein was purified by Protein A affinity chromatography, and was used either as a substrate coated onto plastic or as a soluble molecule added to the culture medium at approximately 1-10 μg/ml. Neurite outgrowth and survival of mesencephalic neurons from day 17 rat embryos were examined in culture after 7 days in vitro maintenance. Dopaminergic neurons were recognized by immunostaining for dopamine-β-hydroxylase (DBH) and quantified using IBAS morphometric equipment. Cultures with added soluble L1-Fc were maintained on poly-DL-ornithine (PORN) and substrate-coated L1-Fc was added on top of previously coated PORN (under conditions described in Appel et al, J. Neuroscience 13:4764-4775, 1993). NCAM-Fc was used as a control.

hippocampal neurons = experiment: Neurite outgrowth of hippocampal neurons in coculture with L929 transfectants; format: cell-based, rat; settings: CHL1-transfected L929 cells, 11-12 h coculture
Method: In addition to the studies conducted and reviewed above, further experiments were conducted withy CHL1 to define its role in neurite outgrowth and the parameters of its action. Thus and as depicted and described earlier with reference to FIGS. 28A-C, hippocampal neurons were co-cultured with L929 transfectants and L929 parental cells. Particularly, hippocampal neurons derived from rats of embryonal day 18 were cultured in subconfluent monolayers of L929-transfectants or parental L929 cells. After 11-12 h of coculture the cells were fixed and labeled with monoclonal antibody 412 (recognizing the HNK-1 carbohydrate epitope) or a polyclonal antibody against NCAM. For measurement of the total neurite length only the longest neurite per each branch was determined due to the highly branched character of the neurons in these cultures. The results of the experiments are given below with letter reference to the respective figures within FIG. 28. […] Neurons were cocultured with CHL1-transfectants (CHL1) or parental L929 cells (L929) with (+AB) or without polyclonal antibodies against recombinant CHL1 (500 μg/ml of purified IgG, added 45 min after plating) and on L1-transfectants. The mean total neurite length of 4-5 independent experiments is shown. Error bars are standard error of the mean. (B) Different CHL1 lines promote neurite outgrowth better than L1. […]

cerebellar neurons = experiment: Neurite outgrowth of small cerebellar neurons in coculture with L929 transfectants; format: cell-based, mouse; settings: CHL1-transfected L929 cells, 20 h
Method: CHL1 activity was also tested with cerebellar neurons as set forth with reference to FIG. 29. Thus, cerebellar neurons derived from 6-7 day old mice were cultured for 20 h on CHL1-transfectants (CHL1), CHL1-transfected non-expressing L929 cells (Mock), parental L929, or L1-transfectants (L1). The results are likewise set forth in paragraphs that correspond in designation to the sub-figures within FIG. 29. […] The mean of total neurite length of three experiments is shown. Error bars are standard error of the mean. (B) CHL1 promotes neurite outgrowth also of small cerebellar neurons better than L1. The total neurite length is given as percent of L929 cells as a control (ctr). Error bars are standard error of the mean. (C) Increase of neurite outgrowth of cerebellar neurons by CHL1 affects all size classes of neurites. Cumulative frequency of distribution plot of the total neurite length of the percentage of neurons with neurites longer than or equal to a certain length x (vertical axis) was plotted as a function of neurite length x (horizontal axis).

N[C@H](CCCP(=O)(O)O)C(=O)O [D-AP5, D(−)-2-amino-5-phosphonopentanoic acid]
induction of LTP [1]: totally prevented
NMDA receptor-mediated EPSPs (NMDA receptor): completely suppressed

laminin
neurite outgrowth and cell number [2]: greater neurite outgrowth, but not more cells than those coated with L1

pertussis toxin
inhibition of neurite outgrowth (small cerebellar neurons): inhibit neurite outgrowth on L1 and antibody 557.B6

soluble L1: recombinant L1-Fc fusion protein made in COS cells, added to the culture medium at 1-10 μg/ml
number of neurons ([3]; per unit field): 98 ± 7
length of neurites (total neurite length per neuron) [3]: 135 ± 27 μm

B1: CHL1: close homolog of L1, presented by CHL1-transfected L929 cells (protein)
chain: MMELPLCGRGLILSLIFLLLKLSAAEIPLSVQQVPTIVKQSYVQVAFPFDEYFQIECEAKGNPEPIFSWTKDDKPFDLSDPRIIAANNSGTFKIPNEGHISHFQGKYRCFASNRLGTAVSEEIEFIVPGVPKFPKEKIEPIDVEEGDSIVLPCNPPKGLPPLHIYWMNIELEHIEQDERVYMSQRGDLYFANVEENDSRNDYCCFAAFPKLRTIVQKMPMKLTVNSSNSIKQRKPKLLLPPAQMGSLSAKTVLKGDTLLLECFAEGLPTPHIQWSKPGSELPEGRATIEVHEKTLKIENISYQDRGNYRCTANNLLGKASHDFHVTVEEPPRWKKKPQSAVYSTGSSGILLCEAEGEPQPTIKWRLNGLPIEKHPFPGDFMFPREISFTNLLFNHTGVYQCEASNIHGTILANANIDVIDVIPLIKTKNEENYATVVGYSAFLHCEYFASPKATVVWEVADETHPLEGDRYHTHENGTLEIYRTTEEDAGSYSCWVDNAMGKAVITANLDIRNATKLRVSPKNPRIPKSHVLELYCESQCDSHLKHSLKLSWSKDGEAFEMNGTEDGRIVIDGAYLTISNITAEDQGVYSCSAQTSLDSTSEKTQVTVLGVPDPPETFTCQKDKNRSVRLLREAGDDHNSKSASTIVEFEGNREEPGKWEELTRVQGEETDVVLSLAPYVRYQFRVTAVNEVGRSHASLPSDHHETPPAAPDKNPQNIRVQASQPKEMIIKWEPLKSMEQNGPGLEYKVSWKPQGAPEEWEEEIVTNHTLRVMTPTVYAPYDVKVQAINQLGSSPDPQPVTLYSGEDYPSTAPVIQRVDVMNSTLVKVTWSSIPKETVHGLLRGYQINWWKTKSLLDGRTHPKEVNILRFSGQRNSGMVPSLDPFSEFHLTVLAYNSKGAGPESEPYIFQTPEGVPEQPSFLKVIKVDKDTATLSWGLPKKLNGNLTGYLLQYQIINDTYELGELNEINVTTPSKSSWHLSNLNSTTKYKFYLRACTSRGCGKPISEEGATLGEGSKGIRKITEGVNVTQKIHPVEVLVPGAEHIVHLMTKNWGDNDSIFQDVIETRGREYAGLYDDISTQGWFIGLMCAIALLTLILLTICFVKRNRGGKYSVKEKEDLHPDPEVQSAKDETFGEYSDSDEKPLKGSLRSLNRNMQPTESADSLVEYGEGDQSIFNEDGSFIGAYTGAKEKGSVESNGSSTATFPLRA
modifications: murine
notes: close homolog of L1, presented by CHL1-transfected L929 cells
neurite outgrowth (hippocampal neurons): Neurite outgrowth is promoted by CHL1 and inhibitable by antibodies
neurite outgrowth (cerebellar neurons): promotes neurite outgrowth of small cerebellar neurons
